Test results published in patent publication US20120270917A1 (The Trustees of the University of Pennsylvania, priority 2009, published 2012).
Structures can show the parent of a compound that is named as a salt.

Tests used:
[1] = biological target: AM2 (S31N) (Influenza A virus, UniProt P0DOF5, S31N); type: cell-based
[2] = biological target: AM2 (V27A) (Influenza A virus, UniProt P0DOF5, V27A); type: cell-based

NC12CC3CC(CC(C3)C1)C2 [Amantadine, reference compound]
S31N % of inhibition by 100 μM for 2 min [1]: 34.7 ± 1.6%

NC12CC3CC(C1)CC(O)(C3)C2 [Compound 38]
AM2 (S31N) % inhibition at 100 uM [1]: 38 (20%)

N=C(N)NC12CC3CC(CC(C3)C1)C2 [Compound 39, 1-(adamantyl)guanidine]
AM2 (S31N) % inhibition at 100 uM [1]: 39 (0%)

CC(NC(=N)N)C12CC3CC(CC(C3)C1)C2 (centres unmarked) [Compound 40]
AM2 (S31N) % inhibition at 100 uM [1]: 40 (0%)

Cl.Cl.N=C(N)NC(=N)NC12CC3CC(CC(C3)C1)C2 [Compound 41]
AM2 (S31N) % inhibition at 100 uM [1]: 41 (0%)

NOC12CC3CC(CC(C3)C1)C2 [Compound 42, O-adamantylhydroxylamine]
AM2 (S31N) % inhibition at 100 uM [1]: 42 (15%)

Cc1nc[nH]c1/C=N/OC12CC3CC(CC(C3)C1)C2 [Compound 43, 5-Methyl-3H-imidazole-4-carbaldehyde O-adamantan-1-yl-oxime]
AM2 (S31N) % inhibition at 100 uM [1]: 43 (10%)

N=C(N)C12CC3CC(CC(C3)C1)C2 [Compound 44, Adamantane amidine hydrochloride]
AM2 (S31N) % inhibition at 100 uM [1]: 44 (31.5%)

NC1CSC2(SC1)C1CC3CC(C1)CC2C3 (centres unmarked) [Compound 45]
AM2 (S31N) % inhibition at 100 uM [1]: 45 (0%)

N=C(NO)C12CC3CC(CC(C3)C1)C2 [Compound 46, N-hydroxyadamantanecarboximidamide]
AM2 (S31N) % inhibition at 100 uM [1]: 46 (0%)

C1NC2CC3CC1CC(C3)C2.Cl [Compound 47, 4-Azatricyclo[4.3.1.1^3,8]undecan hydrochloride]
AM2 (S31N) % inhibition at 100 uM [1]: 47 (8%)

NC(=O)C12CC3CC(CC(C3)C1)C2 [Compound 48]
AM2 (S31N) % inhibition at 100 uM [1]: 48 (7.3%)

O=CC12CC3CC(CC(C3)C1)C2 [Compound 49, 1-adamantanecarboaldehyde]
AM2 (S31N) % inhibition at 100 uM [1]: 49 (11%)

O=C1C2CC3CC(C2)CC1C3 [Compound 50]
AM2 (S31N) % inhibition at 100 uM [1]: 50 (0%)

O=C1C2CC3CC1CC(C2)C3=O [Compound 52, 2,6-diadamantone]
AM2 (S31N) % inhibition at 100 uM [1]: 52 (0%)

OC1(C(F)(F)F)C2CC3CC(C2)CC1C3 (centres unmarked) [Compound 53, 2-trifluoromethyl-2-adamantol]
AM2 (S31N) % inhibition at 100 uM [1]: 53 (14%)

O=[N+]([O-])C12CC3CC(CC(C3)C1)C2 [Compound 54, 1-nitroadamantane]
AM2 (S31N) % inhibition at 100 uM [1]: 54 (24%)

Cl.NC1C[C@@H]2C[C@@H]3CC1[C@H](C2)C3 (stereo partly drawn) [Compound S1, (2S,3aS,5R)-octahydro-1H-2,5-methanoinden-7-aminium chloride]
AM2 (V27A) % inhibition at μM [2]: 25.5%

Cl.NC12CC3CCC(CC(C3)C1)C2 [Compound S2, tricyclo[4.3.1.13,8]undecan-1-aminium chloride]
AM2 (S31N) % inhibition at μM [1]: 23.7%
AM2 (V27A) % inhibition at μM [2]: 13.6%

O=[N+]([O-])C1C2CC3CC(C2)CC1C3 (centres unmarked) [Compound S3]
AM2 (S31N) % inhibition at μM [1]: 12.4%
AM2 (V27A) % inhibition at μM [2]: 7.4%

CC1(O)C2CC3CC(C2)CC1C3 (centres unmarked) [Compound S4]
AM2 (S31N) % inhibition at μM [1]: 10.6%
AM2 (V27A) % inhibition at μM [2]: 10.9%

CC1(N)C2CC3CC(C2)CC1C3 (centres unmarked) [Compound S5]
AM2 (S31N) % inhibition at μM [1]: 13.8%
AM2 (V27A) % inhibition at μM [2]: 7.2%

NC1(C(F)(F)F)C2CC3CC(C2)CC1C3 (centres unmarked) [Compound S6]
AM2 (S31N) % inhibition at μM [1]: 13.7%
AM2 (V27A) % inhibition at μM [2]: 1.5%

NS(=O)(=O)NC1C2CC3CC(C2)CC1C3 (centres unmarked) [Compound S7]
AM2 (S31N) % inhibition at μM [1]: 3.8%

OC1(C(F)(F)F)C2CC3CC(C2)CC1C3 (centres unmarked) [Compound S8]
AM2 (S31N) % inhibition at μM [1]: 14.0%
AM2 (V27A) % inhibition at μM [2]: 10.6%

O=[N+]([O-])C12CC3CC(CC(C3)C1)C2 [Compound S9]
AM2 (S31N) % inhibition at μM [1]: 24.0%
AM2 (V27A) % inhibition at μM [2]: 19.9%

Cl.NC12CCC3CC(CC(C3)C1)C2 [Compound S12]
AM2 (S31N) % inhibition at μM [1]: 32.8%
AM2 (V27A) % inhibition at μM [2]: 13.3%

O=C1C2CC3CC(C2)CC1C3 [Compound S13]
AM2 (S31N) % inhibition at μM [1]: 0%
AM2 (V27A) % inhibition at μM [2]: 0%

Cl.NC1C2CC3CC(C2)CC1C3 (centres unmarked) [Compound S14]
AM2 (S31N) % inhibition at μM [1]: 18.2%
AM2 (V27A) % inhibition at μM [2]: 0%

Cl.NC1CCC2(CC1)C1CC3CC(C1)CC2C3 (centres unmarked) [Compound S15, (1r, 3r,5r,7r)-spiro[adamantane-2,1′-cyclohexan]-4′-aminium chloride]
V27A % of inhibition by 100 μM for 2 min [2]: 94.5 ± 0.4%

CC(N)C12CC3CC(CC(C3)C1)C2 (centres unmarked) [Rimantadine, reference compound]
S31N % of inhibition by 100 μM for 2 min [1]: 13.3 ± 1.8%
